This test concerns Human immunodeficiency virus 1. As to the kind of experiment: Inhibition of HIV-1 P24 production. It counts as functional, organism-based.
Where [1] appears, read: read-out: Log 1/EC50 (converted).

For `C=Cc1c(C)c2cc3[nH]c(cc4nc(cc5nc(cc1[nH]2)C(C)=C5CCC(=O)OC)C(CCC(=O)OC)=C4C)c(C)c3C=C`, the EC50 runs as follows: (Human immunodeficiency virus 1) 67.9 µM; under setting [1], 67.6 µM. The corresponding values for `CC1=C(C(O)CO)c2cc3nc(cc4[nH]c(cc5[nH]c(cc1n2)c(C)c5CCC(=O)O)c(CCC(=O)O)c4C)C(C(O)CO)=C3C` (stereo unspecified) are 54.4 µM and 55 µM.

As for `O=C(O)c1ccc(/C2=C3\C=CC(=N3)/C(c3ccc(Cl)cc3)=C3/C=CC(=N3)/C(c3ccc(C(=O)O)cc3)=c3/cc/c([nH]3)=C(\c3ccc(C(=O)O)cc3)C3C=CC2N3)cc1` (stereo unspecified), the EC50 is 0.758 µM (Human immunodeficiency virus 1) and 1.32 µM under setting [1].

Regarding `Cc1ccc(/C2=C3\C=CC(=N3)/C(c3ccc(C(=O)O)cc3)=c3/cc/c([nH]3)=C(\c3ccc(C)cc3)C3C=CC(N3)/C(c3ccc(C)cc3)=C3/C=CC2=N3)cc1` (stereo unspecified), the EC50 is, setting by setting: (Human immunodeficiency virus 1) 14.7 µM; under setting [1], 14.8 µM.

Take `NC(=O)c1ccc(/C2=C3\C=CC(=N3)/C(c3ccc(C(N)=O)cc3)=c3/cc/c([nH]3)=C(\c3ccc(C(N)=O)cc3)C3C=CC(N3)/C(c3ccc(C(N)=O)cc3)=C3/C=CC2=N3)cc1` (stereo unspecified): the EC50 is 1.07 µM (Human immunodeficiency virus 1) and 1.07 µM under setting [1]. With `C=CC1=C(C)c2cc3nc(cc4[nH]c(cc5[nH]c(cc1n2)c(C)c5CO)c(C)c4CCC(=O)O)C(CCC(=O)O)=C3C`, the EC50 is, setting by setting: (Human immunodeficiency virus 1) 5.59 µM; under setting [1], 5.62 µM. In the same order, the values of `C=Cc1c(C)c2cc3[nH]c(cc4nc(cc5nc(cc1[nH]2)C(C)=C5CCC(=O)O)C(CCC(=O)O)=C4C)c(C)c3C(C)O` (stereo unspecified) are 6.16 µM and 6.17 µM. Take `C1=C/C2=C(\c3ccccc3)C3C=CC(N3)/C(c3ccccc3)=c3/cc/c([nH]3)=C(\c3ccccc3)C3=N/C(=C(/c4ccccc4)C1=N2)C=C3` (stereo unspecified): the EC50 reads like this: (Human immunodeficiency virus 1) 54.7 µM; under setting [1], 55 µM. The corresponding values for `CC1=C(CCC(=O)O)c2cc3[nH]c(cc4[nH]c(cc5nc(cc1n2)C(CCC(=O)O)=C5CC(=O)O)c(CCC(=O)O)c4C)c(CCC(=O)O)c3CC(=O)O` are 20.7 µM and 20.9 µM.

In turn, `O=C(O)c1ccc(/C2=C3\C=CC(=N3)/C(c3ccccc3)=c3/cc/c([nH]3)=C(\c3ccc(C(=O)O)cc3)C3C=CC(N3)/C(c3ccc(C(=O)O)cc3)=C3/C=CC2=N3)cc1` (stereo unspecified) returned an EC50 (Human immunodeficiency virus 1) of 0.612 µM.

Regarding `CN1C2C=CC1/C(c1ccc(C(=O)O)cc1)=c1/cc/c([nH]1)=C(\c1ccc(C(=O)O)cc1)C1=N/C(=C(/c3ccc(C(=O)O)cc3)C3=N/C(=C\2c2ccc(C(=O)O)cc2)C=C3)C=C1` (stereo unspecified), the EC50 reads like this: (Human immunodeficiency virus 1) 0.774 µM; under setting [1], 1.29 µM. Regarding `C=CC1=C(C)c2cc3nc(cc4[nH]c(cc5c(C=C)c(C)c(cc1n2)n5C)c(C)c4CCC(=O)O)C(CCC(=O)O)=C3C`, the EC50 was 1.03 µM (Human immunodeficiency virus 1) and 1.02 µM under setting [1].

Take `O=C(O)c1ccc(/C2=C3\C=CC(=N3)/C(c3ccc(C(=O)O)cc3)=c3/cc/c([nH]3)=C(\c3ccc(C(=O)O)cc3)C3C=CC(N3)/C(c3ccc(C(=O)O)cc3)=C3/C=CC2=N3)cc1` (stereo unspecified): the EC50 (Human immunodeficiency virus 1) was determined as 0.63 µM. For `O=C(O)CCC1=C(CC(=O)O)c2cc3nc(cc4[nH]c(cc5[nH]c(cc1n2)c(CCC(=O)O)c5CC(=O)O)c(CC(=O)O)c4CCC(=O)O)C(CC(=O)O)=C3CCC(=O)O`, the EC50 by setting is: (Human immunodeficiency virus 1) 3.02 µM; under setting [1], 3.02 µM.

With `O=C(O)CCC1=C(CC(=O)O)c2cc3nc(cc4[nH]c(cc5[nH]c(cc1n2)c(CC(=O)O)c5CCC(=O)O)c(CC(=O)O)c4CCC(=O)O)C(CC(=O)O)=C3CCC(=O)O`, the EC50 was 9.04 µM (Human immunodeficiency virus 1) and 9.12 µM under setting [1].

In the case of `CC1=C(CCC(=O)O)c2cc3nc(cc4[nH]c(cc5[nH]c(cc1n2)c(CCC(=O)O)c5CC(=O)O)c(CCC(=O)O)c4C)C(CCC(=O)O)=C3C`, the EC50 reads like this: (Human immunodeficiency virus 1) 43.3 µM; under setting [1], 43.7 µM. For the compound `CC1=C(CCC(=O)O)c2cc3[nH]c(cc4[nH]c(cc5nc(cc1n2)C(CCC(=O)O)=C5CC(=O)O)c(CCC(=O)O)c4CC(=O)O)c(CCC(=O)O)c3CC(=O)O`, the EC50 is, setting by setting: (Human immunodeficiency virus 1) 10.7 µM; under setting [1], 10.7 µM. With `O=C(O)C1=CC(=C(c2ccc(O)c(C(=O)O)c2)c2ccc(O)c(C(=O)O)c2)C=CC1=O` [AURINTRICARBOXYLIC ACID], the EC50 (Human immunodeficiency virus 1) was found to be 28.4 µM. As for `C=CC1=C(C)c2cc3[nH]c(cc4nc(cc5[nH]c(cc1n2)c(C)c5CCC(=O)O)C(CCC(=O)O)=C4C)c(C)c3C=C` [PROTOPORPHYRIN], the EC50 (Human immunodeficiency virus 1) stood at 2.17 µM and the EC50 under setting [1] is 2.19 µM.

HEMIN came in with an EC50 of 35.3 µM.

(Values after ChEMBL document CHEMBL1127631, “Three-dimensional structure-activity analysis of a series of porphyrin derivatives with anti-HIV-1 activity targeted to the V3 loop of the gp120 envelope glycoprotein of the human immunodeficiency virus type 1” (J Med Chem, 1994).)
